# Measurements: patent US20040198738A1, “Preventives or remedies for diseaes caused by enos expression” (priority 2002, published 2004)
# How the values were obtained:
# [1] = test system: superoxide in plaque area of aorta of ApoE-KO/eNOS-Tg mice; assay: Production of superoxide in excised aorta (MCLA chemiluminescence); assay type: in vivo, mouse; settings: BH4 added high cholesterol diet for 8 weeks, 12 weeks old mice; vs non-administration; FIG. 4; p<0.01
# Experimental: Groups were prepared, each of which consisted of 6 to 8 mice (12 weeks old, ApoE-KO/eNOS-Tg) fed on BH4 added or BH4 non-added high cholesterol diet for 8 weeks in the same manner as in Example 12. The aorta was excised from these mice, peripheral tissues were eliminated, and the remaining portion was mounted on a black silicone dish filled with PBS with pH 7.4. The sample was placed in a light-shielding box to avoid interference of external light, and thereafter, MCLA was added to the chamber to the final concentration of […]. Thereafter, light emission generated as a result of the reaction between MCLA (2-methyl-6-(4-methoxyphenyl)-3,7-dihydroimidazol[1,2-a]pyrazin-3-one-hydrochloride) and superoxide anion was measured for 5 minutes. This measurement was repeated 3 times.
# The light emission data was served in a computer, and the obtained nonlinear gray scale images were converted into pseudocolor images. The intensity of chemiluminescence due to superoxide was analyzed using WinLight 32 software. The plaque area was defined as an area that was stained with Sudan III. Approximately 10 plaque areas and 10 non-plaque areas ([…]) were randomly selected from each mouse, followed by measurement. The background level was subtracted from each chemiluminescent signal intensity. […] The results are shown as relative values. […]
# [2] = test system: NO from aortic endothelium of ApoE-KO/eNOS-Tg mice; assay: Production of NO in excised aorta (DAF-2 DA fluorescence, acetylcholine stimulated); assay type: in vivo, mouse; settings: 12-week-old mice, high cholesterol diet for 8 weeks, BH4 administered vs not administered; FIG. 5; p<0.01
# Source text: The aorta containing the portion from the aortic arch to the bifurcation portion of the iliac artery was excised from each of 12-week-old mice (ApoE-KO/eNOS-Tg) fed on a high cholesterol diet for 8 weeks. Immediately thereafter, surrounding portions were eliminated in PBS with pH 7.4. The sample was mounted on a black dish filled with a phosphate buffer (pH 7.4) containing 1.5 mmol/L calcium chloride, and it was then placed in a light-shielding box to avoid interference of external light.
# Diaminofluorescein-2 diacetate (DAF-2 DA) was added thereto to the final concentration of 10 μmol/L. Then, the sample was left at ambient temperature for 5 minutes, and thereafter, it was excited with 485 nm blue light. The fluorescence generated as a result of the reaction between DAF-2 DA and NO was detected, using a luminograph equipped with a band filter with a center of 532 nm, and measurement was carried out for 1 second at an intensity of wave length of 515 nm. To examine the production of NO from the aortic endothelium, the sample was left in 1 μmol/L acetylcholine solution for 5 minutes, and then the fluorescent image was measured. After completion of each experiment, in order to determine whether the measured sample was a plaque area or non-plaque area, the sample was stained with Sudan III and observed. […]
# ApoE-KO/eNOS-Tg mice = assay: Sclerotic lesion area of aorta (Sudan III staining, image analysis) in mice fed high cholesterol diet; assay type: in vivo, mouse; settings: BH4 10 mg/kg/day added to high cholesterol diet, FIG. 3
# Source text: 37 mice (ApoE-KO/eNOS-Tg) produced in Example 10 were ablactated at the age of 4 weeks, and then fed on high cholesterol diet (1.25% cholesterol, 7.5% cacao butter, 7.5% casein, and 0.5% sodium cholate) for 12 weeks.
# Thereafter, the 16-week-old mice were anesthetized with pentobarbital, and the aorta was perfused with a physiological saline solution containing 10 U/ml heparin. Thereafter, the aorta corresponding to the portion from the center of the left ventricle to the bifurcation portion of the iliac artery was excised and fixed with 4% paraformaldehyde overnight. Surrounding tissues were eliminated from the distal portion (from the aortic arch to the bifurcation portion of the iliac artery) of the excised aorta. The aorta was longitudinally opened and fixed on a dish coated with silicone, and then stained with Sudan III. The obtained light microscope image was analyzed using NIH 1.61 Imaging Software. The lesion formation area was expressed by lesion area/the total area of aorta. In the figure, * denotes p<0.0001 with respect to ApoE-KO male, and the cross denotes p<0.001 with respect to ApoE-KO female.
# 6 to 8 mice (ApoE-KO/eNOS-Tg) produced in Example 10 were used per group. BH4 non-administration groups were fed on the high cholesterol diet (refer to Example 10), and BH4 administration groups were fed on the high cholesterol diet to which BH4 was added at 10 mg/kg/day. […]
# [3] = Acute toxicity of BH4 dihydrochloride in rat, oral administration; assay type: in vivo
# Source text: The active ingredient used in the present invention is most preferably (6R)-L-erythro-5,6,7,8-tetrahydrobiopterin (BH4) or a salt thereof. However, analogues thereof such as (6R, S)-5,6,7,8-tetrahydrobiopterin, 1′,2′-diacetyl-5,6,7,8-tetrahydrobiopterin, sepiapterin, 6-methyl-5,6,7,8-tetrahydropterin, 6-hydroxymethyl-5,6,7,8-tetrahydropterin, 6-phenyl-5,6,7,8-tetrahydropterin, or a salt thereof, may also be used. However, needless to say, BH4 that is a natural substance existing in an organism is preferable. […] In addition, as is clear from the description of a treatment for Parkinson's disease in Japanese Patent Laid-Open No. 59-25323, the toxicity of (6R, S)-5,6,7,8-tetrahydrobiopterin, that is, non-optically pure substance, is weak. Accordingly, this compound can also be used for the treatment in the present invention. Compounds represented by the formula (I) other than the above described compounds have almost no acute toxicity.
# [4] = from treatment for Parkinson's disease in Japanese Patent Laid-Open No. 59-25323; cited from earlier work
smiles,measurement,setting,value
"CC(O)C(O)C1CNc2nc(N)[nH]c(=O)c2N1 [BH4, (6R)-L-erythro-5,6,7,8-tetrahydrobiopterin]",production of superoxide in plaque area,[1],significantly reduced
same,production of NO in non-plaque area,[2],significantly increased
same,arteriosclerosis,ApoE-KO/eNOS-Tg mice,suppressed
same,lesion area (lesion area/total area of aorta),"ApoE-KO/eNOS-Tg mice; vs non-administration group, p<0.05 male, p<0.01 female",reduced
C[C@H](O)[C@H](O)[C@H]1CNc2[nH]c(N)nc(=O)c2N1.Cl.Cl [BH4 dihydrochloride],acute toxicity,[3],≥ 2 g/kg (body weight)
same,toxicity (in words),[3],almost no toxicity is found
"C[C@H](O)[C@H](O)C1CNc2nc(N)[nH]c(=O)c2N1 (stereo partly drawn) [(6R, S)-5,6,7,8-tetrahydrobiopterin]",toxicity,[4],weak
